Values of other authors as cited in US20220403162A1, “POLYURETHANE COMPOSITIONS SALTED WITH BISBIGUANIDE” (Lubrizol Advanced Materials, Inc., priority 2019, published 2022).

Compound | solubility in water (The Merck Index) | solubility in water or alcohol (quoted from US 2004/0052831 A1)
N=C(NCCCCCCNC(=N)NC(=N)Nc1ccc(Cl)cc1)NC(=N)Nc1ccc(Cl)cc1.O=C(O)[C@H](O)[C@@H](O)[C@H](O)[C@H](O)CO.O=C(O)[C@H](O)[C@@H](O)[C@H](O)[C@H](O)CO [CHG, chlorhexidine digluconate] | at least 50% | –
[H]/N=C(\N/C(=N/[H])NCCCCCCNC(=N)NC(=N)Nc1ccc(Cl)cc1)Nc1ccc(Cl)cc1 [Chlorhexidine, 1,6-bis(4-chloro-phenylbiguanido)hexane] | – | not soluble
